Tests used:
[1] = target: T1, Recombinant STAT6 protein (STAT6 (W123-T658)) (Homo sapiens, UniProt P42226); assay: STAT6 Fluorescence Polarization (FP) Assay; assay type: binding; conditions: STAT6 (W123-T658) 250 nM, probe 5-FAM-Ap[…]-NH2 2 nM, 45-minute incubation; read-out: STAT6 (FP assay IC50 class)
T1 construct: Recombinant STAT6 protein (STAT6 (W123-T658))
T1 sequence (P42226 123-658): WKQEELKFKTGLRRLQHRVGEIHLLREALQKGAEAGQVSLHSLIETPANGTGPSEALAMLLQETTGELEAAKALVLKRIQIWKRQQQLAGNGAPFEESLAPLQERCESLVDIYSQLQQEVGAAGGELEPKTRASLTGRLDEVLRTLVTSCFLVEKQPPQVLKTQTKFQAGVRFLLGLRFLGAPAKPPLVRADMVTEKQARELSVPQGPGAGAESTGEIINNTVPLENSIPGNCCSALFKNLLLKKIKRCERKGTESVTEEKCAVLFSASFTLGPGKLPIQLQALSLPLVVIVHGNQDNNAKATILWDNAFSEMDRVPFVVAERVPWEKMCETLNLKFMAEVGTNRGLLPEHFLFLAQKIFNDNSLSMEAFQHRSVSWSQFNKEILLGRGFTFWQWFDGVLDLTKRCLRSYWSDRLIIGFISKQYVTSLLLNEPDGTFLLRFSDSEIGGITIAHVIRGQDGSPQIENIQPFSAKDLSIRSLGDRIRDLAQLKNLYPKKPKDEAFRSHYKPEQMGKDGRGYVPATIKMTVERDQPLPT
Method in brief: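 STAT6 (W123-T658) at 250 nM was mixed with 2 nM 5-FAM-labeled phosphotyrosine peptide probe in HEPES pH 7.4 buffer with NaCl, EDTA, Tween 20 and DTT, then added to serially diluted compounds at 1% DMSO final. Polarization was read after 45 min at room temperature; IC50 came from nonlinear regression of mP versus log concentration.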

[2] = target: T2, Recombinant STAT3 protein (STAT3 (G127-I722)) (Homo sapiens, UniProt P40763); assay: STAT3 Fluorescence Polarization (FP) Assay; assay type: binding; conditions: STAT3 (G127-I722) 25 nM, probe 5-FAM-GpYLPQTV-NH2 2 nM, 45-minute incubation; read-out: STAT3 (FP assay IC50 class)
T2 construct: Recombinant STAT3 protein (STAT3 (G127-I722))
T2 sequence (P40763 127-722): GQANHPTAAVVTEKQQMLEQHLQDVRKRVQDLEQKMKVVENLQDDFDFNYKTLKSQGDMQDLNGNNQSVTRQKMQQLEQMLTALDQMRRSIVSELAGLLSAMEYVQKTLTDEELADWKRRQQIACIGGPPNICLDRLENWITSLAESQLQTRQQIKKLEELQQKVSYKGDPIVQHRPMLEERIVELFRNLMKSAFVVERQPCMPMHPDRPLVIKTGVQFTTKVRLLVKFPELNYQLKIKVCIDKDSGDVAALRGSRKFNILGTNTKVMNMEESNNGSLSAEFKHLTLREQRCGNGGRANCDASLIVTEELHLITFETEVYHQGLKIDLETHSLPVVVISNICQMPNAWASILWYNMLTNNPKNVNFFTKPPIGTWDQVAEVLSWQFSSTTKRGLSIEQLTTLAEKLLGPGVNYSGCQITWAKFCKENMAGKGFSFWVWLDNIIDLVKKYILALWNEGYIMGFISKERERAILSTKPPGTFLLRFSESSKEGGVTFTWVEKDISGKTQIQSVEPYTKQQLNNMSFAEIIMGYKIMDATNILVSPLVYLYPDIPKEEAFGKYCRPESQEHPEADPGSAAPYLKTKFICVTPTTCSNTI
Method in brief: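 Displacement of a fluorescent phosphotyrosine peptide (5-FAM-GpYLPQTV-NH2, 2 nM) from 25 nM recombinant STAT3 G127-I722 was monitored by FP after 45 min at room temperature.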

| IC50 [1] [µM] | IC50 [2] [µM] | Structure (SMILES) |
| --- | --- | --- |
| 3 to 30 | < 0.1 | CN(C)c1ncncc1C1CN(C(=O)[C@@H]2CC[C@@H]3CCC[C@H](NC(=O)c4cc5cc([C@@H](F)P(=O)(O)O)ccc5s4)C(=O)N32)C1 (single isomer, unassigned) [Compound 667] |
| 3 to 30 | 0.1 to 1 | Cc1nnc([C@H]2[C@H](c3ccccc3)CN2C(=O)[C@@H]2CC[C@@H]3CCC[C@H](NC(=O)c4cc5cc(C(F)P(=O)(O)O)ccc5s4)C(=O)N32)o1 (single isomer, unassigned) [Compound 674] |
| 3 to 30 | < 0.1 | C[C@H]1C[C@H]2CC[C@@H](C(=O)N3CC(c4cncnc4N4CCC4)C3)N2C(=O)[C@@H](NC(=O)c2cc3cc([C@H](F)P(=O)(O)O)ccc3s2)C1 (single isomer, unassigned) [Compound 676] |
| 3 to 30 | < 0.1 | C[C@H]1C[C@H]2CC[C@@H](C(=O)N3CC(c4cncnc4N4CCC4)C3)N2C(=O)[C@@H](NC(=O)c2cc3cc([C@@H](F)P(=O)(O)O)ccc3s2)C1 (single isomer, unassigned) [Compound 677] |
| 0.3 to 3 | < 0.1 | O=C(N[C@H]1CCC[C@H]2CC[C@@H](C(=O)N3CC(c4cncnc4N4CCC4)C3)N2C1=O)c1cc2cc([C@H](F)P(=O)(O)O)ccc2s1 (single isomer, unassigned) [Compound 689] |
| 3 to 30 | 0.1 to 1 | COc1nccc(C2CN(C(=O)[C@@H]3CC[C@@H]4CCC[C@H](NC(=O)c5cc6cc([C@@H](F)P(=O)(O)O)ccc6s5)C(=O)N43)C2)c1F (single isomer, unassigned) [Compound 700] |
| 3 to 30 | 0.1 to 1 | CN(C)c1cc(C2CN(C(=O)[C@@H]3CC[C@@H]4CCC[C@H](NC(=O)c5cc6cc([C@@H](F)P(=O)(O)O)ccc6s5)C(=O)N43)C2)ccn1 (single isomer, unassigned) [Compound 701] |

Second part, the compound before the results:

| Structure (SMILES) | IC50 [1] [µM] | IC50 [2] [µM] |
| --- | --- | --- |
| CN(C)c1ccncc1C1CN(C(=O)[C@@H]2CC[C@@H]3CCC[C@H](NC(=O)c4cc5cc([C@H](F)P(=O)(O)O)ccc5s4)C(=O)N32)C1 (single isomer, unassigned) [Compound 634] | 0.3 to 3 | < 0.1 |
| Cc1ccncc1C1CN(C(=O)[C@@H]2CC[C@@H]3CCC[C@H](NC(=O)c4cc5cc([C@H](F)P(=O)(O)O)ccc5s4)C(=O)N32)C1 (single isomer, unassigned) [Compound 636] | 3 to 30 | < 0.1 |
| CN(C)c1ncncc1C1CN(C(=O)[C@@H]2CC[C@@H]3CCC[C@H](NC(=O)c4cc5cc([C@H](F)P(=O)(O)O)ccc5s4)C(=O)N32)C1 (single isomer, unassigned) [Compound 665] | 3 to 30 | < 0.1 |
| COC[C@@H]1CCN1c1ncncc1C1CN(C(=O)[C@@H]2CC[C@@H]3CCC[C@H](NC(=O)c4cc5cc([C@@H](F)P(=O)(O)O)ccc5s4)C(=O)N32)C1 (single isomer, unassigned) [Compound 669] | 3 to 30 | < 0.1 |
| CN(C)c1c(F)cncc1C1CN(C(=O)[C@@H]2CC[C@@H]3CCC[C@H](NC(=O)c4cc5cc([C@H](F)P(=O)(O)O)ccc5s4)C(=O)N32)C1 (single isomer, unassigned) [Compound 685] | 3 to 30 | < 0.1 |
| O=C(N[C@H]1CCC[C@H]2CC[C@@H](C(=O)N3CC(c4cncnc4N4CCC4)C3)N2C1=O)c1cc2cc([C@@H](F)P(=O)(O)O)ccc2s1 (single isomer, unassigned) [Compound 690] | 3 to 30 | < 0.1 |
| CN(C)C(=O)c1ccncc1C1CN(C(=O)[C@@H]2CC[C@@H]3CCC[C@H](NC(=O)c4cc5cc([C@@H](F)P(=O)(O)O)ccc5s4)C(=O)N32)C1 (single isomer, unassigned) [Compound 696] | 3 to 30 | 1 to 10 |
| COc1c(C2CN(C(=O)[C@@H]3CC[C@@H]4CCC[C@H](NC(=O)c5cc6cc([C@@H](F)P(=O)(O)O)ccc6s5)C(=O)N43)C2)ccnc1Cl (single isomer, unassigned) [Compound 698] | 3 to 30 | 0.1 to 1 |
